In US9334246B2, “Substituted triazines for malaria treatment and chemoprophylaxis” (The United States of America, as represented by the …, priority 2013, dated 2016):

Assays:
Assay type in all cases: cell-based, Plasmodium falciparum
P. falciparum D6 = test: Malaria SYBR Green Fluorescence Assay, D6 strain; conditions: for D6: SYBR Green Assay
P. falciparum W2 = test: Malaria SYBR Green Fluorescence Assay, W2 strain; conditions: for W2: SYBR Green Assay
P. falciparum C235 = test: Malaria SYBR Green Fluorescence Assay, C235 strain; conditions: for C235: SYBR Green Assay

Compound | D6 (P. falciparum D6) [ng/mL] | W2 (P. falciparum W2) [ng/mL] | W2 (SYBR Green Assay IC50) (P. falciparum W2) [µg/mL] | further results
CCN(CC)CCNc1nc(-c2ccc(Cl)cc2)nc(C(Cl)(Cl)Cl)n1 [Cmpd 286] | 5 | 2 | – | C235 (P. falciparum C235): 10 ng/mL
CN(C)CCCNc1nc(Nc2ccc(Cl)cc2)nc(n1)C(Cl)(Cl)Cl [Compound 636] | – | – | 0.018 | D6 (SYBR Green Assay IC50) (P. falciparum D6): 0.016 µg/mL; C235 (SYBR Green Assay IC50) (P. falciparum C235): 0.04 µg/mL
CC(C)CN1CCC(Nc2nc(-c3cccc(Cl)c3)nc(C(Cl)(Cl)Cl)n2)CC1 [Compound 701, CC(C)CN1CCC(CC1)NC1═NC(═NC(═N1)C1═CC(Cl)═CC═C1)C(Cl)(Cl)Cl] | 282 | 195 | – | C235 (P. falciparum C235): 351 ng/mL
FC(F)(F)Oc1ccc(Nc2nc(NCCN3CCCC3)nc(C(Cl)(Cl)Cl)n2)cc1 [Compound 656, FC(F)(F)OC1═CC═C(NC2═NC(═NC(NCCN3CCCC3)═N2)C(Cl)(Cl)Cl)C═C1] | 3 | 2 | – | C235 (P. falciparum C235): 7 ng/mL
CCN1CCC(CNc2nc(-c3ccccc3[N+](=O)[O-])nc(C(Cl)(Cl)Cl)n2)CC1 [Cmpd 551] | – | – | 0.0356 | D6 (SYBR Green Assay IC50) (P. falciparum D6): 0.07027 µg/mL; C235 (SYBR Green Assay IC50) (P. falciparum C235): 0.05653 µg/mL
Cc1ccc(-c2nc(NCCc3ccncc3)nc(C(Cl)(Cl)Cl)n2)cc1 [Cmpd 145] | 168 | 94 | – | C235 (P. falciparum C235): 344 ng/mL
COc1ccc(-c2nc(N3CCC(N)CC3)nc(C(Cl)(Cl)Cl)n2)c2ccccc12 [Compound 620, COC1═CC═C(C2═NC(═NC(═N2)C(Cl)(Cl)Cl)N2CCC(N)CC2)C2═C1C═CC═C2] | – | – | 0.175 | D6 (SYBR Green Assay IC50) (P. falciparum D6): 0.431 µg/mL; C235 (SYBR Green Assay IC50) (P. falciparum C235): 0.409 µg/mL
COc1cc(OC)cc(-c2nc(NCC3CCN(C)CC3)nc(C(Cl)(Cl)Cl)n2)c1 [Cmpd 521] | – | – | 0.014 | D6 (SYBR Green Assay IC50) (P. falciparum D6): 0.045 µg/mL; C235 (SYBR Green Assay IC50) (P. falciparum C235): 0.023 µg/mL
CCC(N)(CC)CNc1nc(-c2ccc(Cl)c(Cl)c2)nc(C(Cl)(Cl)Cl)n1 [Cmpd 388] | – | – | 0.098 | D6 (SYBR Green Assay IC50) (P. falciparum D6): 0.132 µg/mL; C235 (SYBR Green Assay IC50) (P. falciparum C235): 0.153 µg/mL
Clc1cc(Cl)cc(-c2nc(NCCc3cnccn3)nc(C(Cl)(Cl)Cl)n2)c1 [Cmpd 471] | – | – | 0.174 | –
CN1CCCC1CCNc1nc(-c2ccccc2[N+](=O)[O-])nc(C(Cl)(Cl)Cl)n1 (centres unmarked) [Cmpd 524] | – | – | 0.028 | D6 (SYBR Green Assay IC50) (P. falciparum D6): 0.108 µg/mL; C235 (SYBR Green Assay IC50) (P. falciparum C235): 0.07 µg/mL
CCN1CCCC(Nc2nc(Cc3ccccc3OC)nc(C(Cl)(Cl)Cl)n2)C1 (centres unmarked) [Cmpd 94] | 396 | 173 | – | C235 (P. falciparum C235): 456 ng/mL
CCN1CCCC(Nc2nc(-c3ccc(OC)c4ccccc34)nc(C(Cl)(Cl)Cl)n2)C1 (centres unmarked) [Cmpd 280] | 138 | 76 | – | C235 (P. falciparum C235): 193 ng/mL
COc1ccc(-c2nc(NCCc3cccnc3)nc(C(Cl)(Cl)Cl)n2)cc1 [Cmpd 174] | 430 | 181 | – | C235 (P. falciparum C235): 641 ng/mL
CCN1CCCC(Nc2nc(-c3ccc(SC)cc3)nc(C(Cl)(Cl)Cl)n2)C1 (centres unmarked) [Cmpd 88] | 79 | 69 | – | C235 (P. falciparum C235): 77 ng/mL
COC1═C(OC)C═C(C═C1)C1═NC(NCC2(N)CCCCC2)═NC(═N1)C(Cl)(Cl)Cl [Compound 669] | 12 | 10 | – | C235 (P. falciparum C235): 23 ng/mL
CN1CCCC1CCNc1nc(-c2ccc(N3CCCC3)cc2)nc(C(Cl)(Cl)Cl)n1 (centres unmarked) [Cmpd 370] | – | – | – | D6 (SYBR Green Assay IC50) (P. falciparum D6): 0.846 µg/mL
COc1ccc(-c2nc(NC3CCN(C)CC3)nc(C(Cl)(Cl)Cl)n2)cc1 [Cmpd 275] | – | 618 | – | C235 (P. falciparum C235): 699 ng/mL
Cc1ccc(-c2nc(NCc3ccncc3)nc(C(Cl)(Cl)Cl)n2)cc1 [Cmpd 134] | 521 | 453 | – | –
NC1(CNc2nc(-c3ccccc3)nc(C(Cl)(Cl)Cl)n2)CC1 [Compound 677, NC1(CNC2═NC(═NC(═N2)C2═CC═CC═C2)C(Cl)(Cl)Cl)CC1] | – | 527 | – | C235 (P. falciparum C235): 910 ng/mL
CN1CCCC1CCNc1nc(-c2ccc(-c3ccccc3)cc2)nc(C(Cl)(Cl)Cl)n1 (centres unmarked) [Cmpd 201] | – | 845 | – | –
CS(═O)(═O)c1ccc(cc1)c2nc(nc(n2)C(Cl)(Cl)Cl)N3CCC(CC3)C(═O)N [Compound 690] | – | 670 | – | –
Cc1ccc(-c2nc(N3CC4CC3CN4C(=O)OC(C)(C)C)nc(C(Cl)(Cl)Cl)n2)cc1 (centres unmarked) [Compound 711, Cc1ccc(cc1)c2nc(nc(n2)C(Cl)(Cl)Cl)N3CC4CC3CN4C(═O)OC(C)(C)C] | 812 | – | – | –
Cc1ccc(-c2ccccc2-c2nc(N3CCCNCC3)nc(C(Cl)(Cl)Cl)n2)cc1 [Cmpd 263] | – | 960 | – | C235 (P. falciparum C235): 763 ng/mL
OCCN1CCCN(c2nc(-c3ccc(N4CCCC4)cc3)nc(C(Cl)(Cl)Cl)n2)CC1 [Cmpd 465] | – | – | 0.222 | C235 (SYBR Green Assay IC50) (P. falciparum C235): 0.498 µg/mL
COc1ccc(-c2nc(NC3CCN(C)CC3)nc(C(Cl)(Cl)Cl)n2)cc1OC [Cmpd 399] | – | – | 0.705 | –
CC(C)(C)c1ccc(-c2nc(N3CCOCC3)nc(C(Cl)(Cl)Cl)n2)cc1 [Compound 734, CC(C)(C)c1ccc(cc1)c2nc(nc(n2)C(Cl)(Cl)C1)N3CCOCC3] | – | 834 | – | –
CN1CCCC1CCNc1nc(-c2ccc(S(C)(=O)=O)cc2)nc(C(Cl)(Cl)Cl)n1 (centres unmarked) [Cmpd 75] | 635 | – | – | –

Compound | D6 (P. falciparum D6) [ng/mL] | W2 (P. falciparum W2) [ng/mL] | W2 (SYBR Green Assay IC50) (P. falciparum W2) [µg/mL] | further results
COc1ncccc1Nc1nc(-c2ccc(S(C)(=O)=O)cc2)nc(C(Cl)(Cl)Cl)n1 [Compound 651, COc1ncccc1Nc2nc(nc(n2)C(Cl)(Cl)Cl)c3ccc(cc3)S(═O)(═O)C] | – | – | 0.577 | D6 (SYBR Green Assay IC50) (P. falciparum D6): 0.76 µg/mL
CS(=O)(=O)c1ccc(-c2nc(NCc3ccncc3)nc(C(Cl)(Cl)Cl)n2)cc1 [Compound 650, CS(═O)(═O)c1ccc(cc1)c2nc(NCc3ccncc3)nc(n2)C(Cl)(Cl)Cl] | – | – | 0.803 | –
CSc1ccc(-c2nc(NCCc3cnccn3)nc(C(Cl)(Cl)Cl)n2)cc1 [Cmpd 543] | – | – | 0.669 | –
CS(=O)(=O)c1ccc(-c2nc(NCCc3ccccn3)nc(C(Cl)(Cl)Cl)n2)cc1 [Cmpd 180] | 819 | 478 | – | –
NC1(CNc2nc(-c3cccc(C(F)(F)F)c3)nc(C(Cl)(Cl)Cl)n2)CCCCC1 [Compound 663, NC1(CNC2═NC(═NC(═N2)C2═CC(═CC═C2)C(F)(F)F)C(Cl)(Cl)Cl)CCCCC1] | 729 | 583 | – | –
COc1ccccc1-c1nc(NCc2ccncc2)nc(C(Cl)(Cl)Cl)n1 [Cmpd 135] | 765 | 461 | – | –
CC(C)(C)c1ccc(cc1)c2nc(nc(n2)C(Cl)(Cl)Cl)N3CCCN(CCO)CC3 [Compound 738] | – | 60.48 | – | C235 (P. falciparum C235): 239.9 ng/mL
CN(Cc1ccccc1c2cccnc2)c3nc(nc(n3)C(Cl)(Cl)Cl)c4ccc(cc4)C(Cl)(Cl)Cl [Compound 653] | – | 272.1 | – | –
CC(C)(C)OC(=O)N1CC2CC1CN2c1nc(-c2ccc(Cl)c(Cl)c2)nc(C(Cl)(Cl)Cl)n1 (centres unmarked) [Compound 705, CC(C)(C)OC(═O)N1CC2CC1CN2c3nc(nc(n3)C(Cl)(Cl)Cl)c4ccc(Cl)c(Cl)c4] | – | 851.8 | – | –
COc1ccccc1-c1nc(NCCc2cccnc2)nc(C(Cl)(Cl)Cl)n1 [Cmpd 182] | 659 | 256 | – | –
COc1ccccc1Cc1nc(N2CCCN(C)CC2)nc(C(Cl)(Cl)Cl)n1 [Cmpd 289] | 810 | 311 | – | –
ClC(Cl)(Cl)c1nc(NCc2ccccn2)nc(-c2ccc(-c3ccccc3)cc2)n1 [Cmpd 250] | – | 721 | – | C235 (P. falciparum C235): 858 ng/mL
CN(CCc1ccccn1)c2nc(nc(n2)C(Cl)(Cl)Cl)c3ccc(cc3)C(C)(C)C [Compound 736] | – | 445.4 | – | –
COc1ccc(-c2nc(NCCc3cnccn3)nc(C(Cl)(Cl)Cl)n2)c2ccccc12 [Cmpd 546] | – | – | 0.361 | C235 (SYBR Green Assay IC50) (P. falciparum C235): 0.701 µg/mL
Clc1ccc(-c2nc(NCCc3cnccn3)nc(C(Cl)(Cl)Cl)n2)cc1Cl [Cmpd 470] | – | – | 0.07 | C235 (SYBR Green Assay IC50) (P. falciparum C235): 0.258 µg/mL
COc1ccc(-c2nc(N3CCCN(C)CC3)nc(C(Cl)(Cl)Cl)n2)cc1OC [Cmpd 398] | – | – | 0.638 | –
NC1(CNc2nc(-c3ccc(C(Cl)(Cl)Cl)cc3)nc(C(Cl)(Cl)Cl)n2)CC1 [Compound 679, NC1(CNC2═NC(═NC(═N2)C2═CC═C(C═C2)C(Cl)(Cl)Cl)C(Cl)(Cl)Cl)CC1] | 606 | 201 | – | –
COc1ccccc1-c1nc(NCc2cccnc2)nc(C(Cl)(Cl)Cl)n1 [Cmpd 154] | – | 477 | – | –
COc1cccc(Cc2nc(NCCN3CCCC3)nc(C(Cl)(Cl)Cl)n2)c1 [Cmpd 82] | – | 805 | – | –
ClC(Cl)(Cl)c1nc(NCc2cccnc2)nc(-c2ccc(-c3ccccc3)cc2)n1 [Cmpd 249] | – | 545 | – | C235 (P. falciparum C235): 755 ng/mL
CN(C)C1CCC(Nc2nc(-c3ccc(C(Cl)(Cl)Cl)cc3)nc(C(Cl)(Cl)Cl)n2)CC1 (centres unmarked) [Cmpd 597] | – | – | 0.882 | –
COc1ccc(-c2nc(NCc3cccnc3)nc(C(Cl)(Cl)Cl)n2)cc1 [Cmpd 156] | – | 560 | – | –
ClC(Cl)(Cl)c1ccc(C(Cl)(Cl)Cl)cc1.FC(F)(F)c1cccc(-c2nc(NCCCN3CCCC3)nc(C(Cl)(Cl)Cl)n2)c1 [Cmpd 602] | – | – | 0.853 | –
Cc1ccc(-c2nc(N3CCN(CCO)CC3)nc(C(Cl)(Cl)Cl)n2)cc1 [Cmpd 416] | – | – | 0.381 | –
CCN1CCC(CNc2nc(Nc3cccnc3OC)nc(C(Cl)(Cl)Cl)n2)CC1 [Cmpd 352] | – | – | 0.6372 | D6 (SYBR Green Assay IC50) (P. falciparum D6): 0.7908 µg/mL
CCN(CC)CCCC(C)Nc1nc(Nc2ccc(Cl)c(Cl)c2)nc(n1)C(Cl)(Cl)Cl [Compound 646] | – | – | 0.7354 | D6 (SYBR Green Assay IC50) (P. falciparum D6): 0.6727 µg/mL
CC(C)(C)c1ccc(-c2nc(NCc3ccccn3)nc(C(Cl)(Cl)Cl)n2)cc1 [Cmpd 170] | – | 313 | – | –
